Measurements taken from publication PMC7586797, “Phase 1 Study to Evaluate the Effect of the Investigational Anticancer Agent Sapanisertib on the QTc Interval in Patients With Advanced Solid Tumors” (Clinical Pharmacology in Drug Development, 2020).
“And” between values parts separate entries of the source, which are not always exact repeats. Equal entries are not always repeated. Where two headings read alike, the source gives them in different places.

Key:
[1] = cited from earlier work; for Geometric Mean Cmax: fasted, immediate release capsules, advanced solid tumors, ref data on file 14
[2] = Plasma pharmacokinetics after single 40 mg oral dose (LC-MS/MS, noncompartmental); format: in vivo, human; settings: 40 mg single oral dose; for AUC(0-inf) / Cmax / Tmax / half-life: human, po, 40 mg
Experimental: On cycle 1 day 1, triplicate ECGs and plasma samples for PK were collected from patients ≤15 minutes prior to dosing and at 15 minutes; 30 minutes; and 1‐, 1.5‐, 2‐, 2.5‐, 3‐, 4‐, 6‐, 8‐, and 10‐hour time points after receiving a single oral dose of 40‐mg sapanisertib. The Holter recorders and ECG leads were removed from patients after collection of the 10‐hour time point ECG on day 1, following which patients were furloughed from site. Additional collections of ECGs and plasma samples for PK were conducted at 24 (cycle 1 day 2) and 48 hours (cycle 1 day 3) after dosing. After the first week, that is, cycle 1 day 8, patients had the option to continue to receive treatment with sapanisertib at a dose of 30 mg once weekly in continuous 28‐day cycles until disease progression, unacceptable toxicity, withdrawal of consent, or completion of the 12‐month maximum study duration.
Plasma samples were analyzed for sapanisertib using a validated liquid chromatography with tandem mass spectrometry method with deuterated sapanisertib used as the internal standard. Multiple reactant monitoring was performed using a positive electrospray method for the mass transitions (m/z) of 310.0 to 268.1 for sapanisertib and 317.0 to 269.1 for deuterated sapanisertib. A Shimadzu high‐pressure liquid chromatography system and Sciex API 4000 tandem mass spectrometry system were used with an Agilent Eclipse plus C18, 50 × 4.6 mm, 3.50‐µm column. For extraction, 50 µL of diluent (0.1% formic acid in acetonitrile/water, 50:50, v/v) and 20 µL of internal standard solution (0.5 µg/mL in diluent) were added to 50 µL of ethylenediaminetetraacetic acid plasma followed by vortex mixing. Plasma proteins were precipitated by adding 500 µL of 0.2% formic acid in acetonitrile followed by vortex mixing for 2 minutes and centrifugation for 5 minutes. A 40‐µL aliquot of the supernatant was transferred to a high‐pressure liquid chromatography vial containing 400 µL of reconstitution solution (10 mM ammonium formate and 10 mM citric acid in acetonitrile/water, 20:80, v/v). Injection volume was 10 µL. A gradient mobile phase (from 20% to 98%) was used, composed of mobile phase A: 0.1% formic/4 mM ammonium formate in water and mobile phase B: 0.1% formic acid and 4 mM ammonium formate in acetonitrile/water 98:2, v/v). The sapanisertib retention time was 1.7 minutes. The dynamic range of the assay was 1 to 1000 ng/mL. Assay accuracy expressed as %bias for the quality control samples ranged from –4.0% to –2.7% and assay precision expressed as percentage coefficient of variation (%CV) for quality control samples, ranged from 3.0% to 9.5% in plasma.
PK parameters were calculated by noncompartmental methods using WinNonLin Professional version 6.1 (Certara, Princeton, New Jersey). The PK analysis population was defined as all patients who received at least 1 dose of sapanisertib and had sufficient concentration‐time data to calculate ≥1 PK parameters. The safety population included all patients who received ≥1 dose of sapanisertib, according to the National Cancer Institute Common Terminology Criteria for Adverse Events, version 4.03.

[3] = tested on: human ether‐à‐go‐go channel; test: In vitro hERG channel inhibition; format: biochemical; settings: free Cmax 0.3 µM at 40 mg
[4] = tested on: human ether‐à‐go‐go channel; settings: in vitro; cited from earlier work
[5] = tested on: breast cancer‐ resistance protein; design: method as in Takeda data on file; settings: in vitro; ref Takeda data on file; cited from earlier work
[6] = tested on: patients with advanced solid tumors; settings: in vivo
Description: The relationships between concentration of sapanisertib and QTc and RR intervals were quantitatively analyzed in the PK/QTc analysis population using PK and ECG data from all patients. The data were first explored by graphical analysis, including a visual check for evidence of hysteresis. Mixed‐effects models were subsequently developed to describe the direct effect of sapanisertib on change from time‐matched baseline in RR, QTcI, and QTcF.
Standard diagnostic and goodness‐of‐fit plots were used for model evaluation and adequacy, plausibility, and precision of parameter estimates. A visual predictive check for the final model was generated to evaluate whether the model provided an accurate description of the data. The estimated parameters were reported with the standard error of the estimates as a measure of uncertainty, and nonparametric bootstrap resampling was used to construct 95%CI for the population parameters in each model. All model development was conducted with a qualified installation of the nonlinear mixed‐effects modeling software, version 7.3 (ICON Development Solutions, Hanover, Maryland). All data analyses were conducted using a qualified installation of the statistical software R.
A linear mixed‐effects model was used to characterize the direct effect of sapanisertib plasma concentration on ΔQTcI. […] The linear mixed‐effects model of sapanisertib plasma concentration versus ΔQTcI was subsequently used to predict the effect of sapanisertib on QTcI at the expected Cmax values for 4‐, 30‐, and 40‐mg sapanisertib doses. […] Model‐based simulations from the fitted model for ΔQTcI versus sapanisertib plasma concentration were used to generate CIs across the range of observed concentrations and to estimate the probability of patient ΔQTcI values exceeding 30‐ and 60‐millisecond thresholds at Cmax values corresponding to the 4‐, 30‐, and 40‐mg doses (Table 4).

monkey = tested on: monkey; design: method as in data on file; settings: ref data on file, cited from earlier work
[7] = design: method as in data on file; settings: in vitro; ref data on file; cited from earlier work
[8] = tested on: organic cation transporter 2; design: method as in Takeda data on file; settings: in vitro; ref Takeda data on file; cited from earlier work
[9] = design: method as in Takeda, data on file; settings: human hepatocytes; ref Takeda, data on file; cited from earlier work
CYP and UGT enzymes = tested on: CYP and UGT enzymes; design: method as in Takeda, data on file; settings: in vitro reaction phenotyping; ref Takeda, data on file; cited from earlier work

Structure (SMILES): CC(C)n1nc(-c2ccc3oc(N)nc3c2)c2c(N)ncnc21 [sapanisertib]
- Geometric Mean Cmax ([1]; 4 mg once daily): 36.9 ng/mL ^a
- Geometric Mean Cmax ([1]; 30 mg once weekly): 235 ng/mL ^b
- Anticipated free maximum plasma concentration (Cmax) ([1]; 40 mg, cancer patients): 300 nM
- Cmax ([1]; 40 mg, cancer patients, read-out: Total Cmax): 960 nM
- Dose linearity of pharmacokinetics ([1]; 2- to 40-mg dose range): dose‐linear pharmacokinetics
- Accumulation ratio ([1]; once-daily administration): ~1
- Accumulation ([1]; once-weekly administration): does not accumulate
- CL (apparent clearance), Geometric mean (%CV) ([2]; empty stomach): 16.1 L/h and 16.1 (46.3) L/h
- CL (apparent clearance), Mean (SD) ([2]; empty stomach): 18.3 (8.5) L/h
- CL (apparent clearance), Median (range) ([2]; empty stomach): 18.0 (3.1–41.8) L/h
- AUC(0-inf) ([2]; empty stomach, read-out: AUC∞, Geometric mean (%CV)): 2480 ng·h/mL
- AUC(0-inf) ([2]; empty stomach, read-out: AUC∞, Mean (SD)): 2990 ng·h/mL
- AUC(0-inf) ([2]; empty stomach, read-out: AUC∞, Median (range)): 2220 ng·h/mL
- Cmax ([2]; empty stomach, read-out: Cmax, Geometric mean (%CV)): 297 ng/mL
- Cmax ([2]; empty stomach, read-out: Cmax, Mean (SD)): 337 ng/mL
- Cmax ([2]; empty stomach, read-out: Cmax, Median (range)): 317 ng/mL
- Tmax ([2]; empty stomach, read-out: Tmax, Geometric mean (%CV)): 1.73 h
- Tmax ([2]; empty stomach, read-out: Tmax, Mean (SD)): 2.51 h
- Tmax ([2]; empty stomach, read-out: Tmax, Median (range)): 1.52 h
- half-life ([2]; no unit in table (hours), read-out: T1/2 (terminal disposition half-life), Geometric mean (%CV) (converted)): 9.06 h
- half-life ([2]; no unit in table (hours), read-out: T1/2 (terminal disposition half-life), Mean (SD) (converted)): 9.48 h
- half-life ([2]; no unit in table (hours), read-out: T1/2 (terminal disposition half-life), Median (range) (converted)): 9.07 h
- half-life ([2]; standard deviation 2.9 hours, read-out: Mean plasma half-life (converted)): 9.5 h
- hERG IC50 as multiple of anticipated free Cmax [3]: ~583 times
- IC50 [4]: 175 µM
- IC50 [5]: 51.9 µM
- Estimated probability that ΔQTcF would exceed 30 milliseconds or 60 milliseconds ([6]; human): < 0.0001
- Association of ΔQTcF with plasma concentration [6]: weakly negative association
- Association of ΔQTcI with plasma concentration [6]: weakly negative association
- Association of ΔRR with plasma concentration [6]: weakly positive association
- Estimated free Cmax (monkey; 0.5 mg/kg): 230 nM
- Electrocardiographic changes (monkey; single- or multiple-dose, up to 0.5 mg/kg): no remarkable electrocardiographic changes
- Bound to human plasma proteins [7]: 70.5%
- IC50 [8]: 1.9 µM
- Share of hepatic metabolism mediated by cytochrome P450 (CYP) isozymes [9]: ~60%
- Share of hepatic metabolism mediated by other non-CYP enzymes [9]: ~20%
- Share of hepatic metabolism mediated by uridine 5'-diphospho-glucuronosyltransferases [9]: ~20%
- CYP enzymes participating in oxidative metabolism (CYP and UGT enzymes): CYP1A2, 3A4, and 2C19
